Reference: patent US4621089A, “Pyrazolopyridine derivatives and their use in treating inflammation and allergic conditions” (Beecham Group p.l.c., priority 1984, dated 1986)

What was measured:
mice = conditions: J. Heterocycl. Chem. 1971, 8(6), 1035-7; cited from earlier work
cantharidin mouse ear = assay: Mouse Cantharidin Screen (topical anti-inflammatory activity, mouse ear); assay type: in vivo; conditions: ears weighed 24 h after cantharidin
Method: Compounds were tested for topical anti-inflammatory activity in a cantharidin mouse ear screen, modified from Swinge et al [Swingle, K. F., Reiter, M. J. and Schwartzmiller, D. H., Arch. Int. Pharmacodyn., (1981), 254, 168-176].
25 μg cantharidin (in 10 μl THF/MeOH) was applied to both ears. Compound, in the same solvent, was applied at the same time, to the left ear only. Ears were weight 24 h after cantharidin application. Percentage inhibition of the acute inflammatory swelling refers to the increase in weight of left ears (cantharidin plug compound) compared with solvent-treated negative controls, as a proportion of the increase in weight of right ears (cantharidin alone) over similar controls.

[1] = test system: 5-Lipoxygenase enzyme from RBL-1 cells; assay: RBL-1 5-Lipoxygenase Screen; assay type: biochemical; conditions: 20 μM compound, 10,000 g supernatant, 6.3 μm arachidonic acid, 29° C.
Method: 5-Lipoxygenase enzyme was prepared as a 10,000 g supernatant from RBL-1 cells by the method of Jakschik [Jakschik, B. A., Sun. F. F., Lee, L. M. and Steinhoff, M. M., 1980, Biochem. Biophys. Res. Comm. 95, 103]. The 10,000 g supernatant was diluted with homogenization buffer to the equivalent of 1.5-2.5×10^7 cells ml^-1 and made 2 mM with respect to CaCl2. Aliquots of 0.5 ml were then dispensed into tubes, and incubated at 29° C. with 5 γl ethanol or compound in ethanol at the desired concentration for 2 min. Then [1-^14 C] arachidonic acid was added in buffer to give a final concentration of 6.3 μm and 0.2 μCi per incubation, and the reaction continued at 29° C. for 2 min. The reaction was terminated by adding 1 ml of acetone and cooling on ice, 0.5 ml of ice-cold saline and 10 μl of 2N formic acid were added, and the mixture was extracted with 2×2 ml of chloroform. The extract was stored under N2 at -20° C. until analysis by chromatography. Activity was measured as the percentage of total radioactivity found in 5-HETE and 5,12-diHETE, and inhibition calculated as the decrease in formation of the sum of these two species in compound-treated incubates relative to control incubates.

[2] = test system: mouse sensitised to oxazolone; assay: Mouse Oxazolone Screen (topical anti-inflammatory activity); assay type: in vivo; conditions: 500 μg/ear topical, ear weights 24 h after oxazolone challenge
Method: Compounds were tested for topical anti-inflammatory activity in a screen using the mouse sensitised to oxazolone, by a method modified from that of Dietrich and Hess [Dietrich, F. M., and Hess, R., Int. Arch. Allergy, (1970), 38, 246-259].
Mice were sensitised with oxazolone (2 mg in 20 μl ethanol) on a shaved area of the abdomen. Five days later, the animals recieved 10 μl THF/MeOH (1:1 v/v) on the right ear, and the test compound in the same solvent on the left ear. One hour later, the animals were challenged with 100 μg oxazolone in 10 μl acetone on each ear. Ear weights were measured 24 h later. Percentage inhibition of the inflammatory swelling refers to the increase in weight of left ears (oxazolone plus compound) compared with solvent-treated negative controls, as a proportion of the increase in weight of right ears (oxazolone alone) over similar controls.

CC(=O)N(C(C)=O)c1cc(C)nc2c(C)n[nH]c12 [compound wherein R is NAc2]
CNS antidepressant activity (mice): CNS antidepressant activity

C=CCNc1c(C(=O)OCC)cnc2cn[nH]c12 [Example 2, Ethyl 7-Allylamino-1H-pyrazolo[4,3-b]-pyridine-6-carboxylate]
inhibition of the acute inflammatory swelling (cantharidin mouse ear; 500 μg/ear topical): 20%

CCCCNc1c(C(=O)OCC)cnc2cn[nH]c12 [Example 6, Ethyl 7-n-Butylamino-1H-pyrazolo[4,3-b]pyridine-6-carbosylate]
inhibition of formation of 5-HETE and 5,12-diHETE [1]: 78% | inhibition of the acute inflammatory swelling (cantharidin mouse ear; 200 μg/ear topical): 42%

CCOC(=O)c1cnc2cn[nH]c2c1Nc1ccccc1 [Example 1, Ethyl 7-anilino-1H-pyrazolo[4,3-b]pyridine-6-carboxylate]
inhibition of the inflammatory swelling [2]: 24%
